Our source for the T/C values is PubChem BioAssay AID328 (DTP/NCI, 2004).

The subject of the assay is BDF1 mice, P388 leukemia ip, median survival T/C. Put plainly: NCI In Vivo Anticancer Drug Screen. Data for tumor model P388 Leukemia (intraperitoneal) in B6D2F1 (BDF1) mice. The note with it: endpoint: median survival time, higher = longer survival. The procedure, abridged: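 Compound-treated tumour-bearing mice were compared with vehicle-treated controls. Survival was recorded, and the value is the treated-group measurement divided by the control-group measurement (T/C).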

Setting [1] is: dose: 100.0 mg/kg/injection, schedule: Q01DX009 (ip), vehicle: saline with Tween-80.
The mark [2] stands for this setting: dose: 200.0 mg/kg/injection, schedule: Q01DX009 (ip), vehicle: saline with Tween-80.
Setting [3] is: dose: 50.0 mg/kg/injection, schedule: Q01DX009 (ip), vehicle: Klucel (hydroxypropylcellulose) (HPC).
[4] abbreviates: dose: 50.0 mg/kg/injection, schedule: Q01DX009 (ip), vehicle: saline with Tween-80.

Molecules are shown by their SMILES. Values joined by “and” are separate entries in the source; they are usually repeats but may differ in a detail not shown here. Equal values may be shown once. Inconclusive results and toxic doses are left out.

Regarding `CO[C@H](C(=O)[C@@H](O)[C@@H](C)O)[C@@H]1Cc2cc3cc(O)c(C)c(O)c3c(O)c2C(=O)[C@H]1O`, the T/C was 114 % of control (dose: 0.12 mg/kg/injection, schedule: Q01DX009 (ip), vehicle: water); 107 % of control (dose: 0.25 mg/kg/injection, schedule: Q01DX009 (ip), vehicle: water); 114 % of control (dose: 0.5 mg/kg/injection, schedule: Q01DX009 (ip), vehicle: water); 99 % of control (dose: 1.0 mg/kg/injection, schedule: Q01DX009 (ip), vehicle: water); 97 % of control (dose: 2.0 mg/kg/injection, schedule: Q01DX009 (ip), vehicle: water); 99 % of control (dose: 4.0 mg/kg/injection, schedule: Q01DX009 (ip), vehicle: water).

`CCN(CC)C(=O)Cn1cc(F)c(NC(C)=O)nc1=O`: the T/C reads like this: under setting [1], 90 % of control; (dose: 100.0 mg/kg/injection, schedule: Q04DX003 (ip), vehicle: saline) 95 % of control; under setting [2], 105 % of control; (dose: 200.0 mg/kg/injection, schedule: Q04DX003 (ip), vehicle: saline) 109 % of control; (dose: 400.0 mg/kg/injection, schedule: Q01DX009 (ip), vehicle: saline with Tween-80) 110 % of control; (dose: 400.0 mg/kg/injection, schedule: Q04DX003 (ip), vehicle: saline) 113 % of control.

Turning to `CC(=O)[C@H]1CC[C@H]2[C@@H]3CC[C@@H]4C[C@@H](O)CC[C@]4(C)[C@H]3CC[C@]12C`, the T/C is 109 % of control (dose: 163.0 mg/kg/injection, schedule: Q01DX009 (ip), vehicle: saline with Tween-80) and 100 % of control (dose: 325.0 mg/kg/injection, schedule: Q01DX009 (ip), vehicle: saline with Tween-80).

For `Cc1ccc(C(=O)/C=C/c2ccccc2O)cc1`, the T/C is, setting by setting: under setting [3], 99 % of control; (dose: 100.0 mg/kg/injection, schedule: Q01DX009 (ip), vehicle: Klucel (hydroxypropylcellulose) (HPC)) 109 % of control; (dose: 200.0 mg/kg/injection, schedule: Q01DX009 (ip), vehicle: Klucel (hydroxypropylcellulose) (HPC)) 107 % of control; (dose: 400.0 mg/kg/injection, schedule: Q01DX009 (ip), vehicle: Klucel (hydroxypropylcellulose) (HPC)) 101 % of control.

Turning to `c1ccc(-c2nnn(-c3ccccc3)n2)cc1`, the T/C by setting is: under setting [4], 93 % of control; under setting [2], 93 % of control.

As for `COc1cc(-c2cc(=O)c3c(OC)c(OC)c(OC)c(OC)c3o2)cc2c1OCO2`, the T/C by setting is: (dose: 100.0 mg/kg/injection, schedule: Q04DX002 (ip), vehicle: Klucel (hydroxypropylcellulose) (HPC)) 97 % of control; (dose: 200.0 mg/kg/injection, schedule: Q04DX002 (ip), vehicle: Klucel (hydroxypropylcellulose) (HPC)) 103 % of control; (dose: 400.0 mg/kg/injection, schedule: Q04DX002 (ip), vehicle: Klucel (hydroxypropylcellulose) (HPC)) 97 % of control.

Regarding `Cn1cc(/C=C/C(N)=O)c2nccnc21`, the T/C was 114 % of control (dose: 1.56 mg/kg/injection, schedule: Q01DX009 (ip), vehicle: water); 100 % of control (dose: 3.12 mg/kg/injection, schedule: Q01DX009 (ip), vehicle: water); 115 % of control (dose: 3.12 mg/kg/injection, schedule: Q04DX003 (ip), vehicle: water); 95 % of control (dose: 6.25 mg/kg/injection, schedule: Q01DX009 (ip), vehicle: water); 106 % of control (dose: 6.25 mg/kg/injection, schedule: Q04DX003 (ip), vehicle: water); 96 % of control (dose: 12.5 mg/kg/injection, schedule: Q01DX009 (ip), vehicle: water). Further, the T/C reads like this: (dose: 12.5 mg/kg/injection, schedule: Q04DX003 (ip), vehicle: water) 98 % of control; (dose: 25.0 mg/kg/injection, schedule: Q01DX009 (ip), vehicle: water) 100 % of control and 102 % of control; (dose: 25.0 mg/kg/injection, schedule: Q04DX003 (ip), vehicle: water) 98 % of control; (dose: 50.0 mg/kg/injection, schedule: Q01DX009 (ip), vehicle: water) 86 % of control; (dose: 50.0 mg/kg/injection, schedule: Q04DX003 (ip), vehicle: water) 102 % of control.

For the molecule `C=C(C)C(=O)NCCCCCC(=O)Oc1ccc([N+](=O)[O-])cc1`, the T/C by setting is: (dose: 12.5 mg/kg/injection, schedule: Q01DX009 (ip), vehicle: saline with Tween-80) 95 % of control; (dose: 25.0 mg/kg/injection, schedule: Q01DX009 (ip), vehicle: saline with Tween-80) 116 % of control; under setting [4], 86 % of control and 106 % of control; under setting [2], 86 % of control.

`CC(C)=CC(=O)OC1C2C(C)C(=O)OC2C(O)C(C)C2C=CC(=O)C21C` (stereo not drawn): the T/C by setting is: (dose: 3.12 mg/kg/injection, schedule: Q01DX009 (ip), vehicle: saline) 94 % of control; (dose: 6.25 mg/kg/injection, schedule: Q01DX009 (ip), vehicle: saline) 101 % of control; (dose: 12.5 mg/kg/injection, schedule: Q01DX009 (ip), vehicle: saline) 103 % of control; (dose: 25.0 mg/kg/injection, schedule: Q01DX009 (ip), vehicle: saline) 120 % of control; under setting [3], 118 % of control; (dose: 50.0 mg/kg/injection, schedule: Q01DX009 (ip), vehicle: saline) 120 % of control.

As for `[NH-]C(CCC(N)=O)C(=O)O.[NH-]C(CCC(N)=O)C(=O)O.[Pt+2]` (stereo not drawn), the T/C reads like this: (dose: 12.5 mg/kg/injection, schedule: Q01DX009 (ip), vehicle: distilled water + Tween-80) 100 % of control; (dose: 25.0 mg/kg/injection, schedule: Q01DX009 (ip), vehicle: distilled water + Tween-80) 100 % of control; (dose: 50.0 mg/kg/injection, schedule: Q01DX009 (ip), vehicle: distilled water + Tween-80) 100 % of control; (dose: 100.0 mg/kg/injection, schedule: Q01DX009 (ip), vehicle: distilled water + Tween-80) 113 % of control.

As to `CC(=O)OCC(OC(C)=O)C(OC(C)=O)C(OC(C)=O)C1COC(C)(C)O1` (stereo not drawn), the T/C (dose: 75.0 mg/kg/injection, schedule: Q01DX009 (ip), vehicle: saline with Tween-80) is 94 % of control; the T/C (dose: 150.0 mg/kg/injection, schedule: Q01DX009 (ip), vehicle: saline with Tween-80) was 86 % of control; the T/C (dose: 300.0 mg/kg/injection, schedule: Q01DX009 (ip), vehicle: saline with Tween-80) is 91 % of control.

`CCCCCCCC(=O)Nc1c(C)cccc1C`: the T/C (dose: 100.0 mg/kg/injection, schedule: Q04DX003 (ip), vehicle: saline with Tween-80) was 100 % of control; the T/C (dose: 200.0 mg/kg/injection, schedule: Q04DX003 (ip), vehicle: saline with Tween-80) was 100 % of control; the T/C (dose: 400.0 mg/kg/injection, schedule: Q04DX003 (ip), vehicle: saline with Tween-80) is 95 % of control.

As to `C=C(C)CP(=O)(c1ccccc1)c1ccccc1`, the T/C was 96 % of control under setting [4], 100 % of control under setting [1] and 91 % of control under setting [2].

`Cc1cc(=O)[nH]c2cc(Br)ccc12`: the T/C is, setting by setting: (dose: 100.0 mg/kg/injection, schedule: Q01DX001 (ip), vehicle: saline with Tween-80) 104 % of control; (dose: 200.0 mg/kg/injection, schedule: Q01DX001 (ip), vehicle: saline with Tween-80) 90 % of control; (dose: 400.0 mg/kg/injection, schedule: Q01DX001 (ip), vehicle: saline with Tween-80) 90 % of control.

As for `COC(=O)C(C#N)=N/C(=C/C=C1/N(C)c2ccccc2C1(C)C)c1ccccc1`, the T/C was 102 % of control under setting [4], 96 % of control under setting [1] and 97 % of control under setting [2].

As for `CC(=O)C1=CC2(OC3CCC(O)(C(=O)CO)C(C)O3)C(=O)c3c(cc4cccc(O)c4c3O)CC2C(O)C1O` (stereo not drawn), the T/C is, setting by setting: (dose: 19.0 mg/kg/injection, schedule: Q01DX010 (ip), vehicle: carboxymethylcellulose (CMC)) 100 % of control; (dose: 38.0 mg/kg/injection, schedule: Q01DX010 (ip), vehicle: carboxymethylcellulose (CMC)) 100 % of control; (dose: 75.0 mg/kg/injection, schedule: Q01DX010 (ip), vehicle: carboxymethylcellulose (CMC)) 104 % of control; (dose: 150.0 mg/kg/injection, schedule: Q01DX010 (ip), vehicle: carboxymethylcellulose (CMC)) 104 % of control.

With `CCOC(=O)Oc1ccc(/C=N/NC(N)=S)nc1`, the T/C reads like this: under setting [4], 169 % of control; under setting [1], 178 % of control.

In the case of `COC(=O)C(Br)c1cccc(OC)c1` (stereo not drawn), the T/C is 100 % of control (dose: 58.5 mg/kg/injection, schedule: Q01DX009 (ip), vehicle: saline with Tween-80); 100 % of control (dose: 88.0 mg/kg/injection, schedule: Q01DX009 (ip), vehicle: saline with Tween-80); 90 % of control (dose: 132.0 mg/kg/injection, schedule: Q01DX009 (ip), vehicle: saline with Tween-80); 100 % of control and 120 % of control under setting [2].
